Legend:
Type in all cases: biochemical
McDAH = biological target: T1, McDAH (Menispermum canadense, UniProt A0A6M3RHU8); experiment: in vitro enzyme assay, LC-MS; conditions: 2OG-dependent chlorination, 1 mM NaCl
T1 sequence (A0A6M3RHU8 1-351): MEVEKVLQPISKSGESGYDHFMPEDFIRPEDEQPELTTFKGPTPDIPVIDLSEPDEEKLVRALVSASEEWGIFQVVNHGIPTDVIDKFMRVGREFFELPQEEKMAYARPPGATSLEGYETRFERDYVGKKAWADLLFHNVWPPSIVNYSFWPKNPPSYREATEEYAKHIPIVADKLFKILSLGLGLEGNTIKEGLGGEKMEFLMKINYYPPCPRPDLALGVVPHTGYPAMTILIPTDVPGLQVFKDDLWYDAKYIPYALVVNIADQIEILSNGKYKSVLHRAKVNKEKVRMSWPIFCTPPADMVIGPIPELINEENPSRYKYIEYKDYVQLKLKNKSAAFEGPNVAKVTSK

SaDAH [1] = biological target: T2, SaDAH (Sinomenium acutum, UniProt A0A6M3RD65, G226D); experiment: in vitro enzyme assay, LC-HRAM-MS; conditions: 2OG 500 µM, NaCl 1 mM, Fe(II) 2 mM, ascorbate 5 mM, Tris pH 8.0, room temperature; hydroxylation
T2 construct: codon-optimized, N-terminal 8xHis-TEV tag (pHis8-4) cleaved, E. coli BL21(DE3)

SaDAH [2] = biological target: T3, SaDAH (Sinomenium acutum, UniProt A0A6M3RD65); experiment: LC-MS quantification of (−)-acutumine formed; conditions: 2OG 500 µM, NaCl 1 mM, ascorbate 5 mM, (NH4)2Fe(SO4)2 2 mM; 30 nM enzyme, 10 min; chlorination
T3 construct: codon-optimized, N-terminal 8xHis-TEV tag (pHis8-4) cleaved, E. coli BL21(DE3)
T3 sequence (A0A6M3RD65 entry or part of it): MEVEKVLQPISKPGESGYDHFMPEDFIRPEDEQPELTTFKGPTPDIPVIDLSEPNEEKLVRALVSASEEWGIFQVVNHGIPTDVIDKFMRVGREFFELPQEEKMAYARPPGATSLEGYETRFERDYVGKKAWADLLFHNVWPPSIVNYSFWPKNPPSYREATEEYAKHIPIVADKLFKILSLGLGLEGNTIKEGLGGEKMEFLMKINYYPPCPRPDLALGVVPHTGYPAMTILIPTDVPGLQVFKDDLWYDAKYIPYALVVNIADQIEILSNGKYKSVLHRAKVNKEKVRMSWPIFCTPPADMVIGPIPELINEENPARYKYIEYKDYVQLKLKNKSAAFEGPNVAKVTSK

T2 sequence (A0A6M3RD65 entry or part of it G226D): as the sequence (A0A6M3RD65 entry or part of it) above, with G226D counted along it

`COC1=CC(=O)C2(CCC34C(OC)=C(OC)C(=O)CC23CCN4C)C1O` (single isomer, unassigned; (-)) [compound 5, (−)-dechloroacutumine] was tested, and the “in vitro enzyme assay, LC-MS” value (McDAH) was “Recombinant McDAH exhibits identical activity to SaDAH”, the “in vitro enzyme assay, LC-HRAM-MS” value (SaDAH [1]) was “exhibits exclusive (−)-dechloroacutumine hydroxylase activity to give the hydroxylation product 11-hydroxy-dechloroacutumine” and the Km (SaDAH [2]) was 18.4 ± 7.13 µM.

— PMC7170919, “The chloroalkaloid (−)-acutumine is biosynthesized via a Fe(II)- and 2-oxoglutarate-dependent halogenase in Menispermaceae plants” (Nature Communications, 2020)
